This is an account of results in patent publication US20110201569A1, “Methods For Treating Myocardial Disorders” (priority 2009, published 2011).

Holding throughout (type): in vivo, mouse
One assay deals with IL-1β. Briefly: ELISA of IL-1β protein in myocardial tissue after TAC/sham. How it is done: (§1) 11 to 13 week old male C57BL/6 mice were purchased from Charles River (Germany). Mice were housed in individually ventilated pathogen-free cages with free access to water and standard rodent chow. The animals were handled according to the principles of laboratory animal care (NIH publication No. 85-23, revised 1996), and animal procedures were approved by the local committee for animal care.
(§2) The first injection was performed 5 min prior to TAC or sham-operation procedure (described below) and repeated 4, 8, 12, 24, 36, 48 and 60 hrs after surgery. Animals were randomly assigned into two groups, receiving either a tetrasodium salt of the compound of formula 1 (hereinafter “Eritoran tetrasodium”) or placebo. […]
(§3) For ELISA assays, proteins from snap-frozen myocardial tissue were isolated and cytosolic and nuclear proteins separated according to the manufacturer's protocol (NE-PER®, Nuclear and Cytoplasmic Extraction Kit, Pierce®, Thermo Scientific, IL, USA). Myocardial protein levels in the cytoplasmic fraction were detected with Quantikine mouse IL-1β as well as IL-6 ELISA (R&D Systems, […], USA) as described in the manufacturer's protocol. […] Protein concentration was determined by B CA protein assay (Pierce®).
(§4) Statistics were calculated using Prism 4.05 (GraphPad Software Inc., CA, USA). All values are expressed as mean (M)±SEM. […]
On the technique in general: ELISA stands for enzyme-linked immunosorbent assay.

Another assay relates to TLR4. Description: qRT-PCR of TLR4 mRNA in left ventricle after TAC/sham. Background: Quantitative PCR measures a nucleic acid by following its amplification.
Assay [1] deals with matrix metalloproteinase-9 (MMP-9). Description: qRT-PCR of MMP-9 mRNA in left ventricle after TAC/sham. The method, then:
as §1
The first injection was performed 5 min prior to TAC or sham-operation procedure (described below) and repeated 4, 8, 12, 24, 36, 48 and 60 hrs after surgery. […]
(§5) Quantitative real-time PCR analysis was completed. […] RNA was dissolved in 100 μl of RNase-free water, and concentration was determined photometrically (absorbance at 260 nm) before storage at −80° C. […]
(§6) Real-time PCR was performed according to the manufacturer's protocol. […] Each sample was measured in triplicate wells and underwent 40 cycles of amplification on an ABI PRISM® Sequence Detection System (Applied Biosystems). CT values were determined with SDS Software 2.2 (Applied Biosystems) and relative quotients (RQ) were calculated following the ΔΔCT method (RQ target gene/GAPDH).
as §4

The next assay deals with IL-10. Briefly: qRT-PCR of IL-10 mRNA in left ventricle after TAC/sham. The note with it: for IL-10 mRNA level: three days after surgery, qRT-PCR, M ± SEM. How it is done: as §1
(§7) The first injection was performed 5 min prior to TAC or sham-operation procedure (described below) and repeated 4, 8, 12, 24, 36, 48 and 60 hrs after surgery. Animals were randomly assigned into two groups, receiving either a tetrasodium salt of the compound of formula 1 (hereinafter “Eritoran tetrasodium”) or placebo. The catheter was flushed with 50 μl 0.9% NaCl before and 100 μl after each injection of 50 μl Eritoran tetrasodium (2.5 mg/ml vehicle; 5 mg/kg bodyweight/application; dosage adopted from Shimamoto et al., Circulation 2006, 114: 1270-1274) or placebo solution.
Treatment groups were separated into two subgroups, undergoing transverse aortic constriction (TAC) or sham operation. Surgery for TAC was achieved as published previously (see, e.g., Baumgarten et al., Circulation 2002, 105: 2192-2197 and Baumgarten et al., Basic Res Cardiol 2006, 101: 427-435). Mice were intubated in a supine position and mechanical ventilation was initiated (MiniVent 845, Hugo Sachs Elektronik, Germany). A left parasternal incision was performed. A suture was passed underneath the aorta and tied down on a 27 Gauge needle, which was immediately removed and allowed to achieve a standardised and previously validated decreased diameter of the aorta. For sham operation the suture was passed underneath the aorta without ligation. […]
as §5, §6
(§8) Statistics were calculated using Prism 4.05 (GraphPad Software Inc., CA, USA). All values are expressed as mean (M)±SEM. One-way ANOVA with Newman-Keuls post-hoc testing was performed for statistical analysis with the exception of TIMP and cytokine expression which were analysed with Kruskal-Wallis and Dunn's multiple comparison post-hoc testing Impact of TAC-Eritoran on IL-10 expression was analysed with Two-way ANOVA. […]

The next assay relates to IL-6. Description: ELISA of IL-6 protein in myocardial tissue after TAC/sham. How it is done: as §1, §2, §3, §4
The test system of another assay is MMP-9. Briefly: Gelatine zymography of MMP activity in left ventricular tissue after TAC. The method, then: as §1
The first injection was performed 5 min prior to TAC or sham-operation procedure (described below) and repeated 4, 8, 12, 24, 36, 48 and 60 hrs after surgery. Animals were randomly assigned into two groups, receiving either a tetrasodium salt of the compound of formula 1 (hereinafter “Eritoran tetrasodium”) or placebo. The catheter was flushed with 50 μl 0.9% NaCl before and 100 μl after each injection of 50 μl Eritoran tetrasodium (2.5 mg/ml vehicle; 5 mg/kg bodyweight/application; dosage adopted from Shimamoto et al., Circulation 2006, 114: 1270-1274) or placebo solution. […]
For zymographic measurement of MMP activity, protein isolates from left ventricular tissue (60 μg protein content, isolated with NE-PER protein isolation kit; Pierce®) were mixed with 2× Tris-Glycine SDS sample buffer, and loaded on precast zymogram gels (SDS-PAGE; BioRad, Germany) containing […]. […] Areas of protease activity were detected as transparent bands against blue background. […]

The next assay relates to TIMP-1. Description: qRT-PCR of TIMP-1 mRNA in left ventricle after TAC/sham. The method, then: as §1, §7
Treatment groups were separated into two subgroups, undergoing transverse aortic constriction (TAC) or sham operation. […]
as §5, §6, §8

Where [2] appears, read: Example 1, TAC, three days after surgery.
[3] abbreviates: Example 2, TAC treated vs TAC-placebo.

Entries after “also recorded” stand apart in the source; their conditions may differ.

On to `CCCCCC/C=C\CCCCCCCCCC(=O)N[C@H]1[C@H](OC[C@H]2O[C@H](OP(=O)([O-])[O-])[C@H](NC(=O)CC(=O)CCCCCCCCCCC)[C@@H](OCCCCCCCCCC)[C@@H]2O)O[C@H](COC)[C@@H](OP(=O)([O-])[O-])[C@@H]1OCC[C@@H](CCCCCCC)OC.[Na+].[Na+].[Na+].[Na+]` [Eritoran tetrasodium], for which the “IL-1β protein expression (ELISA)” value in the assay on IL-1β (setting [2]) is given as “did not display significant increases; also recorded: lower levels of pro-inflammatory cytokines compared to TAC placebo hearts (not significant)”. The “TLR4 mRNA expression” value is “no significant effects” in the assay with TLR4 (setting [2]) and “had no effects on the mRNA expression” in the assay with TLR4 (Example 1, sham operation, three days after surgery). For the same compound, the “MMP-9 mRNA level” value in assay [1] (Example 1, TAC vs sham within treated groups, three days after surgery) is on record as “remained unchanged by aortic banding”. The “IL-10 mRNA level” value turned out to be 4.71 ± 1.22 b with IL-10 (Example 1, TAC) and 3.81 ± 1.69 b in the assay on IL-10 (Example 1, sham operation). The “elevation of IL-10 mRNA” value in the assay with IL-10 (Example 1, in sham and TAC groups, p<0.05, Two-way Anova) was “three to four fold elevation”. In the assay with IL-6 (setting [2]), the “IL-6 protein expression (ELISA)” value is “did not display significant increases; also recorded: lower levels of pro-inflammatory cytokines compared to TAC placebo hearts (not significant)”. Also, the “MMP (MMP-9) zymographic activity” value in the assay with MMP-9 (setting [2]) is given as “attenuated; also recorded: reduced zymographic activity of MMP-9”. Besides, the “TIMP-1 mRNA expression” value was 23.20±14.52 with TIMP-1 (Example 1, TAC, three days after surgery, RQ target gene/GAPDH) and 1.16±0.40 with TIMP-1 (Example 1, sham operation, three days after surgery, RQ target gene/GAPDH).
For the compound `CCCCCC/C=C\CCCCCCCCCC(=O)N[C@H]1[C@H](OC[C@H]2O[C@H](OP(=O)(O)O)[C@H](NC(=O)CC(=O)CCCCCCCCCCC)[C@@H](OCCCCCCCCCC)[C@@H]2O)O[C@H](COC)[C@@H](OP(=O)(O)O)[C@@H]1OCC[C@@H](CCCCCCC)OC` [compound of formula (I), α-D-Glucopyranose, 3-O-decyl-2-deoxy-6-O-[2-deoxy-3-O-[(3R)-3-methoxydecyl)-6-O-methyl-2-[[(−11Z)-1-oxo-11-octadecenyl)amino]-4-O-phosphono-β-D-glucopyranosyl]-2-[(1,3-dioxotetradecyl)amino]-1-(dihydrogen phosphate)], the IL-1β protein expression entry in the assay with IL-1β (Example 2, TAC treated group) is reported as “reduced”. In addition, in the assay on TLR4 (setting [3]), the “TLR4 mRNA expression” value is on record as “significantly reduced”. Also, the “MMP-9 mRNA expression” value in assay [1] (setting [3]) is given as “higher in the TAC-placebo animals compared to the TAC groups treated”. For the same compound, the “IL-10 mRNA expression” value in the assay on IL-10 (setting [3]) is “increased”. In addition, the IL-6 protein expression result in the assay with IL-6 (Example 2, TAC treated group) was “reduced”. Besides, in the assay with MMP-9 (setting [3]), the MMP-9 zymographic activity entry was “higher in the TAC-placebo animals compared to the TAC groups treated”. For the same compound, the “TIMP-1 mRNA expression” value with TIMP-1 (setting [3]) was “higher”.
